From patent publication US20260324646A1, “BIOLOGICAL COMPOSITION FOR USE AGAINST PLANT FUNGICIDAL INFECTIONS” (UNIVERSITA' DEGLI STUDI DI MILANO, priority 2023, published 2026)

Tests used:
[1] = test system: Alternaria sp. and B. caroliniana; assay: In vitro growth inhibition of phytopathogenic fungi on PDA (radial growth rate, 12-day effect); assay type: cell-based, Alternaria sp.; Botrytis caroliniana; settings: for radial growth rate (Kr): PDA, 27±1° C.
Method: The phytopathogenic fungus Alternaria sp. was isolated in December 2021 from a vineyard in Oltrepo pavese (Santa Maria della Versa, Pavia, Italy).
In addition to Alternaria sp., experiments were also carried out on the fungus Botrytis caroliniana.
(§1) The fungal strains were maintained on potato dextrose agar (PDA, Merck kGaA, Darmstadt, Germany) at 4±1° C. and regularly subcultured. Plants of Solanum lycopersicum (cultivar Rio Grande) were sprouted in the greenhouse of the Fondazione dell'Università di Milano Filarete (Milan, Italy) under controlled conditions (T=18/25±1° C. (night/day), humidity ≥90%, photoperiod 16 h light:8 h dark). Determination of in vitro growth inhibition caused by mixtures of CA, BA, CaCl2 and the compositions of the invention was performed by measuring the diameter and calculating the radial growth rate (Kr, mm/h). The diameter growth of the fungi was determined daily, in six repetitions, using the Image J program (Copyright© 1993, 2018, Oracle).
The fungal cultures were carried out in Petri dishes (6 Well Cell Culture Plates, Sigma-Aldrich). The media treated with the compositions of the invention were inoculated with mycelial caps (diameter 7 mm) of growing active fungal strains (e.g., Alternaria sp. and B. caroliniana). The control cultures are carried out on PDA support and compared with those conducted on CA, BA, CaCl2 and on compositions according to the invention. The media was sterilized at 121° C. for 20 min. Incubation was carried out at 27±1° C. for 12 days in a static incubator (Memmert GmbH+Co. KG, Schwabach, Germany).
The results are shown in FIG. 1 (a) PDA control; b) PDA substrate containing citric acid).

S. lycopersicum plants = assay: Phytotoxicity to treated plants in the in vivo experiments; set-up: species or system Solanum lycopersicum (cultivar Rio Grande); settings: BA 3X (4.8 mM), sprayed 24 hours after infection
Method: as §1
S. lycopersicum plants were infected by […] the spores of the pathogenic fungus Alternaria sp. on the attached leaves and stem. Alternaria sp. spores were obtained by dropping 20 mL of sterile H2O into a culture of the fungus in a Petri dish. The inoculum was calculated after enumerating the spores under light microscope using a counting chamber device and the concentration was 3.1×10^6 spores/mL. 24 hours after infection, the attached leaves were sprayed with the compositions of the invention. The plants were infected and untreated, or treated with CA mixtures or with the compositions of the invention 24 hours after infection with Alternaria sp. […]

Question: For `[Ca+2].[Cl-].[Cl-]` [CaCl2, Calcium chloride], which “Effect (12 days from cultivation)” value ([1]; CaCl2 1X (0.45 mM)) is on record?
Answer: The value was “+++++”.

Question: What about the “radial growth rate (Kr)” value ([1]; CaCl2 1X (0.45 mM)) of the same compound?
Answer: The value was 0.214 mm/h.

Question: What about the “Effect (12 days from cultivation)” value ([1]; CaCl2 2X (0.90 mM)) of the same compound?
Answer: Its value is “+++++”.

Question: And the “radial growth rate (Kr)” value ([1]; CaCl2 2X (0.90 mM))?
Answer: The value was 0.221 mm/h.

Question: What about the “radial growth rate (Kr)” value ([1]; CaCl2 3X (1.4 mM)) of the same compound?
Answer: The value was 0.077 mm/h.

Question: What does the source list for `OB(O)O` [BA, Boric acid]?
Answer: radial growth rate (Kr) ([1]; BA 1X (1.6 mM)): 0.115 mm/h; radial growth rate (Kr) ([1]; BA 3X (4.8 mM)): 0.051 mm/h; Effect (12 days from cultivation) ([1]; BA 5X (8.0 mM)): −; radial growth rate (Kr) ([1]; BA 5X (8.0 mM)): 0.003 mm/h; Effect (8 days after infection): toxicity for the plant (S. lycopersicum plants): Toxic for the plant

Question: Which results are given for `O=C(O)CC(O)(CC(=O)O)C(=O)O` [CA, Citric acid]?
Answer: radial growth rate (Kr) ([1]; CA 1X (0.01M)): 0.099 mm/h; radial growth rate (Kr) ([1]; CA 2X (0.02M)): 0.028 mm/h; radial growth rate (Kr) ([1]; CA 3X (0.03M)): 0.034 mm/h; radial growth rate (Kr) ([1]; CA 5X (0.05M)): 0.012 mm/h; radial growth rate (Kr) ([1]; CA 7X (0.07M)): 0.020 mm/h; Effect (12 days from cultivation) ([1]; CA 10X (0.1M)): −; radial growth rate (Kr) ([1]; CA 10X (0.1M)): 0.000 mm/h; Effect (12 days from cultivation) ([1]; CA 105X (1M)): −; radial growth rate (Kr) ([1]; CA 105X (1M)): 0.000 mm/h
